ChEMBL document CHEMBL3797052 (Eur J Med Chem, 2016)

Tested on: MDA-MB-468
Test: Antiproliferative activity against human MDA-MB-468 cells assessed as cell growth at 10^-6 M after 48 hrs by sulforhodamine B assay
Type: functional
Conditions: MDA-MB-468, 48 h, read-out: Activity
Work on `CNC(=O)c1cc(Oc2ccc3nc(NC(=O)Nc4ccc(Cl)c(C(F)(F)F)c4)sc3c2)ccn1` yielded a growth at 1 µM of 64%.

Tested on: NCI-H23
Test: Antiproliferative activity against human NCI-H23 cells assessed as cell growth at 10^-8 M after 48 hrs by sulforhodamine B assay
Type: functional
Conditions: NCI-H23, 48 h, read-out: Activity
`CNC(=O)c1cc(Oc2ccc3nc(NC(=O)Nc4ccc(Cl)c(C(F)(F)F)c4)sc3c2)ccn1` gave a growth at 0.01 µM of 100%.

Tested on: not listed separately
Test: Antiproliferative activity against human SF295 cells assessed as cell growth at 10^-8 M after 48 hrs by sulforhodamine B assay
Type: functional
Conditions: SF-295, 48 h, read-out: Activity
For `CNC(=O)c1cc(Oc2ccc3nc(NC(=O)Nc4ccc(Cl)c(C(F)(F)F)c4)sc3c2)ccn1`, the growth at 0.01 µM was 95%.

Tested on: not listed separately
Test: Antiproliferative activity against human OVCAR4 cells assessed as cell growth at 10^-4 M after 48 hrs by sulforhodamine B assay
Type: functional
Conditions: OVCAR-4, 48 h, read-out: Activity
Work on `CNC(=O)c1cc(Oc2ccc3nc(NC(=O)Nc4ccc(Cl)c(C(F)(F)F)c4)sc3c2)ccn1` yielded a growth at 100 µM of -15%.

Tested on: not listed separately
Test: Antiproliferative activity against human UACC257 cells assessed as cell growth at 10^-7 M after 48 hrs by sulforhodamine B assay
Type: functional
Conditions: UACC-257, 48 h, read-out: Activity
`CNC(=O)c1cc(Oc2ccc3nc(NC(=O)Nc4ccc(Cl)c(C(F)(F)F)c4)sc3c2)ccn1` gave a growth at 0.1 µM of 98%.

Tested on: not listed separately
Test: Antiproliferative activity against human SKOV3 cells assessed as cell growth at 10^-8 M after 48 hrs by sulforhodamine B assay
Type: functional
Conditions: SK-OV-3, 48 h, read-out: Activity
`CNC(=O)c1cc(Oc2ccc3nc(NC(=O)Nc4ccc(Cl)c(C(F)(F)F)c4)sc3c2)ccn1` showed a growth at 0.01 µM of 97%.

Tested on: not listed separately
Test: Antiproliferative activity against human SW620 cells assessed as cell growth at 10^-4 M after 48 hrs by sulforhodamine B assay
Type: functional
Conditions: SW-620, 48 h, read-out: Activity
Work on `CNC(=O)c1cc(Oc2ccc3nc(NC(=O)Nc4ccc(Cl)c(C(F)(F)F)c4)sc3c2)ccn1` yielded a growth at 100 µM of 42%.

Tested on: not listed separately
Test: Antiproliferative activity against human HOP92 cells assessed as cell growth at 10^-7 M after 48 hrs by sulforhodamine B assay
Type: functional
Conditions: HOP-92, 48 h, read-out: Activity
Molecule `CNC(=O)c1cc(Oc2ccc3nc(NC(=O)Nc4ccc(Cl)c(C(F)(F)F)c4)sc3c2)ccn1` has a growth at 0.1 µM of 80%.

Tested on: not listed separately
Test: Antiproliferative activity against human HCC2998 cells assessed as cell growth at 10^-6 M after 48 hrs by sulforhodamine B assay
Type: functional
Conditions: HCC 2998, 48 h, read-out: Activity
In the case of `CNC(=O)c1cc(Oc2ccc3nc(NC(=O)Nc4ccc(Cl)c(C(F)(F)F)c4)sc3c2)ccn1`, the growth at 1 µM was 94%.

Tested on: not listed separately
Test: Antiproliferative activity against human UACC62 cells assessed as growth inhibition after 48 hrs by sulforhodamine B assay
Type: functional
Conditions: UACC-62, 48 h
`CNC(=O)c1cc(Oc2ccc3nc(NC(=O)Nc4ccc(Cl)c(C(F)(F)F)c4)sc3c2)ccn1` gave a GI50 of 2.06 µM.

Same assay, conditions: UACC-62, 48 h, read-out: LC50 (the source's name)
In the case of `CNC(=O)c1cc(Oc2ccc3nc(NC(=O)Nc4ccc(Cl)c(C(F)(F)F)c4)sc3c2)ccn1`, the CC50 was > 100 µM.

Tested on: MDA-MB-468
Test: Antiproliferative activity against human MDA-MB-468 cells assessed as cell growth at 10^-4 M after 48 hrs by sulforhodamine B assay
Type: functional
Conditions: MDA-MB-468, 48 h, read-out: Activity
In the case of `CNC(=O)c1cc(Oc2ccc3nc(NC(=O)Nc4ccc(Cl)c(C(F)(F)F)c4)sc3c2)ccn1`, the growth at 100 µM was -43%.

Tested on: not listed separately
Test: Antiproliferative activity against human MOLT4 cells assessed as cell growth at 10^-8 M after 48 hrs by sulforhodamine B assay
Type: functional
Conditions: MOLT-4, 48 h, read-out: Activity
With `CNC(=O)c1cc(Oc2ccc3nc(NC(=O)Nc4ccc(Cl)c(C(F)(F)F)c4)sc3c2)ccn1` the growth at 0.01 µM was 106%.

Tested on: ACHN
Test: Antiproliferative activity against human ACHN cells assessed as cell growth at 10^-7 M after 48 hrs by sulforhodamine B assay
Type: functional
Conditions: read-out: Activity
Molecule `CNC(=O)c1cc(Oc2ccc3nc(NC(=O)Nc4ccc(Cl)c(C(F)(F)F)c4)sc3c2)ccn1` has a growth at 0.1 µM of 102%.

Tested on: not listed separately
Test: Antiproliferative activity against human BT549 cells assessed as cell growth at 10^-6 M after 48 hrs by sulforhodamine B assay
Type: functional
Conditions: BT-549, 48 h, read-out: Activity
With `CNC(=O)c1cc(Oc2ccc3nc(NC(=O)Nc4ccc(Cl)c(C(F)(F)F)c4)sc3c2)ccn1` the growth at 1 µM was 87%.

Tested on: K562
Test: Antiproliferative activity against human K562 cells assessed as cell growth at 10^-6 M after 48 hrs by sulforhodamine B assay
Type: functional
Conditions: K562, 48 h, read-out: Activity
`CNC(=O)c1cc(Oc2ccc3nc(NC(=O)Nc4ccc(Cl)c(C(F)(F)F)c4)sc3c2)ccn1` showed a growth at 1 µM of 96%.

Tested on: not listed separately
Test: Antiproliferative activity against human HCT15 cells assessed as cell growth at 10^-4 M after 48 hrs by sulforhodamine B assay
Type: functional
Conditions: HCT-15, 48 h, read-out: Activity
Molecule `CNC(=O)c1cc(Oc2ccc3nc(NC(=O)Nc4ccc(Cl)c(C(F)(F)F)c4)sc3c2)ccn1` has a growth at 100 µM of 23%.

Tested on: not listed separately
Test: Antiproliferative activity against human MOLT4 cells assessed as cell growth at 10^-7 M after 48 hrs by sulforhodamine B assay
Type: functional
Conditions: MOLT-4, 48 h, read-out: Activity
For `CNC(=O)c1cc(Oc2ccc3nc(NC(=O)Nc4ccc(Cl)c(C(F)(F)F)c4)sc3c2)ccn1`, the growth at 0.1 µM was 105%.

Molecular target: CYP2D6 (Homo sapiens, UniProt P10635)
Sequence (P10635 whole entry): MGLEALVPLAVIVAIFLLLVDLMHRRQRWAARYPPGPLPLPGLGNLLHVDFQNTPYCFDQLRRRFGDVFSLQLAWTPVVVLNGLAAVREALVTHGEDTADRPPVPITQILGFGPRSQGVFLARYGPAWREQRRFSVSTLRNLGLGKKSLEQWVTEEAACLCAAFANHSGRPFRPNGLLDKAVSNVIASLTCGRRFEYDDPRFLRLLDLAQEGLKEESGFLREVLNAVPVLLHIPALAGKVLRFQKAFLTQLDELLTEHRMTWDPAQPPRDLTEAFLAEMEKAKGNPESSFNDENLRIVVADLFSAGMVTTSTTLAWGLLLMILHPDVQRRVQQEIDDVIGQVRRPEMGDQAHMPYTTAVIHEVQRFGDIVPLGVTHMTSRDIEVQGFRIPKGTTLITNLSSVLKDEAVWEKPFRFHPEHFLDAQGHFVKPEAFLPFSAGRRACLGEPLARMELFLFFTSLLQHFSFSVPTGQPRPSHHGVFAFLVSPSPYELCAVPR
Test: Inhibition of recombinant human CYP2D6 assessed as remaining enzyme activity using CYP2D6 blue as substrate at 10 uM after 5 mins in presence of NADP by fluorescence plate reader analysis
Type: ADME
Conditions: recombinant human CYP2D6, probe CYP2D6 blue, read-out: Activity
Work on `CNC(=O)c1cc(Oc2ccc3nc(NC(=O)Nc4ccc(Cl)c(C(F)(F)F)c4)sc3c2)ccn1` yielded an activity at 5 min, 10 µM of 98.7%.

Tested on: not listed separately
Test: Antiproliferative activity against human SF539 cells assessed as cell growth at 10^-6 M after 48 hrs by sulforhodamine B assay
Type: functional
Conditions: SF-539, 48 h, read-out: Activity
`CNC(=O)c1cc(Oc2ccc3nc(NC(=O)Nc4ccc(Cl)c(C(F)(F)F)c4)sc3c2)ccn1` gave a growth at 1 µM of 87%.

Tested on: not listed separately
Test: Antiproliferative activity against human UO31 cells assessed as cell growth at 10^-6 M after 48 hrs by sulforhodamine B assay
Type: functional
Conditions: UO-31, 48 h, read-out: Activity
Work on `CNC(=O)c1cc(Oc2ccc3nc(NC(=O)Nc4ccc(Cl)c(C(F)(F)F)c4)sc3c2)ccn1` yielded a growth at 1 µM of 108%.

Tested on: not listed separately
Test: Antiproliferative activity against human COLO205 cells assessed as cell growth at 10^-6 M after 48 hrs by sulforhodamine B assay
Type: functional
Conditions: COLO 205, 48 h, read-out: Activity
`CNC(=O)c1cc(Oc2ccc3nc(NC(=O)Nc4ccc(Cl)c(C(F)(F)F)c4)sc3c2)ccn1` showed a growth at 1 µM of 86%.

Tested on: SR
Test: Antiproliferative activity against human SR cells assessed as growth inhibition after 48 hrs by sulforhodamine B assay
Type: functional
Conditions: not given
For `CNC(=O)c1cc(Oc2ccc3nc(NC(=O)Nc4ccc(Cl)c(C(F)(F)F)c4)sc3c2)ccn1`, the GI50 was 0.412 µM, the LC50 was > 100 µM and the TGI was 9.1 µM.

Tested on: not listed separately
Test: Antiproliferative activity against human COLO205 cells assessed as cell growth at 10^-4 M after 48 hrs by sulforhodamine B assay
Type: functional
Conditions: COLO 205, 48 h, read-out: Activity
With `CNC(=O)c1cc(Oc2ccc3nc(NC(=O)Nc4ccc(Cl)c(C(F)(F)F)c4)sc3c2)ccn1` the growth at 100 µM was 53%.

Tested on: A498
Test: Antiproliferative activity against human A498 cells assessed as cell growth at 10^-6 M after 48 hrs by sulforhodamine B assay
Type: functional
Conditions: A498, 48 h, read-out: Activity
`CNC(=O)c1cc(Oc2ccc3nc(NC(=O)Nc4ccc(Cl)c(C(F)(F)F)c4)sc3c2)ccn1` gave a growth at 1 µM of 80%.

Molecular target: CYP3A4 (Homo sapiens, UniProt P08684)
Sequence (P08684 whole entry): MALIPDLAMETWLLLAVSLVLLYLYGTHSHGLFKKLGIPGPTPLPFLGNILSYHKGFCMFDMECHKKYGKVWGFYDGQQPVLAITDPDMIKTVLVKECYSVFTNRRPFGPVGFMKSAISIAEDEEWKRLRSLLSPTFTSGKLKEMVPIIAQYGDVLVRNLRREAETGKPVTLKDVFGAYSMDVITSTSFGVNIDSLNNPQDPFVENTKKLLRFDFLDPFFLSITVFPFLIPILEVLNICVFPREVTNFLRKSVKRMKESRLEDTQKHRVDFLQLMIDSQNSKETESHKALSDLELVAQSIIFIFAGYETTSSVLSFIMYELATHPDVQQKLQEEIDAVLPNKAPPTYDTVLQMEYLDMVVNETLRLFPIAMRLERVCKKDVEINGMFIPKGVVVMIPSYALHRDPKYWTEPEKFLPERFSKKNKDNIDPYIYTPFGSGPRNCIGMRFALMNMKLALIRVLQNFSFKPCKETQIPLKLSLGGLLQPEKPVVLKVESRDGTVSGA
Test: Inhibition of recombinant human CYP3A4 assessed as remaining enzyme activity using CYP3A4 blue as substrate at 10 uM after 5 mins in presence of NADP by fluorescence plate reader analysis
Type: ADME
Conditions: recombinant human CYP3A4, probe CYP3A4 blue, read-out: Activity
Molecule `CNC(=O)c1cc(Oc2ccc3nc(NC(=O)Nc4ccc(Cl)c(C(F)(F)F)c4)sc3c2)ccn1` has an activity at 5 min, 10 µM of 105%.

Tested on: not listed separately
Test: Antiproliferative activity against human IGROV1 cells assessed as cell growth at 10^-6 M after 48 hrs by sulforhodamine B assay
Type: functional
Conditions: IGROV-1, 48 h, read-out: Activity
With `CNC(=O)c1cc(Oc2ccc3nc(NC(=O)Nc4ccc(Cl)c(C(F)(F)F)c4)sc3c2)ccn1` the growth at 1 µM was 88%.

Tested on: MCF7
Test: Antiproliferative activity against human MCF7 cells assessed as cell growth at 10^-7 M after 48 hrs by sulforhodamine B assay
Type: functional
Conditions: MCF7, 48 h, read-out: Activity
In the case of `CNC(=O)c1cc(Oc2ccc3nc(NC(=O)Nc4ccc(Cl)c(C(F)(F)F)c4)sc3c2)ccn1`, the growth at 0.1 µM was 89%.

Tested on: Serine/threonine-protein kinase B-raf (Homo sapiens), P15056 [V600E]
Sequence (P15056 whole entry V600E): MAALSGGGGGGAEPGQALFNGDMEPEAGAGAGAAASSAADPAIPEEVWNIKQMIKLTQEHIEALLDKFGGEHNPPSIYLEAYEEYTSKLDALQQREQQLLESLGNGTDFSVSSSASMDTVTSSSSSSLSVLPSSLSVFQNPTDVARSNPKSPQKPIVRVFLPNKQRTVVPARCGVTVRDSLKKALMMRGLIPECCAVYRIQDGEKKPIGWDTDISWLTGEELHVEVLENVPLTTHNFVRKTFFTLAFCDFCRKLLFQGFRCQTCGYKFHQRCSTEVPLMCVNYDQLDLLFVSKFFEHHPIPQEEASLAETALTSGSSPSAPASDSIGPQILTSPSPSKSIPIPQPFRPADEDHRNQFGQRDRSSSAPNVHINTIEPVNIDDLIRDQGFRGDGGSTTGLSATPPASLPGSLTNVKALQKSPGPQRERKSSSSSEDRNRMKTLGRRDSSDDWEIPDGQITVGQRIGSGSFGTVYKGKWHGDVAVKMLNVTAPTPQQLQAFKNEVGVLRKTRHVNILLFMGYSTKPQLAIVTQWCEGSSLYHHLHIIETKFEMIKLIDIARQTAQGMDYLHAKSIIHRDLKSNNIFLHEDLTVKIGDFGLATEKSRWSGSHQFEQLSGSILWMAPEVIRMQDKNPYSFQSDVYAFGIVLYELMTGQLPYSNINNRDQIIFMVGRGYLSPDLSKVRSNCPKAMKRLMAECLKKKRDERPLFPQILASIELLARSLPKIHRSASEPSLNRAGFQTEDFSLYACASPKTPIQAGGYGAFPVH
Test: Inhibition of BRAF V600E mutant (unknown origin) at 10 uM measured after 40 mins by scintillation counting
Conditions: not given
In the case of `CNC(=O)c1cc(Oc2ccc3nc(NC(=O)Nc4ccc(Cl)c(C(F)(F)F)c4)sc3c2)ccn1`, the inhibition was 55.1%.

Tested on: NCI-H23
Test: Antiproliferative activity against human NCI-H23 cells assessed as growth inhibition after 48 hrs by sulforhodamine B assay
Type: functional
Conditions: NCI-H23, 48 h
For `CNC(=O)c1cc(Oc2ccc3nc(NC(=O)Nc4ccc(Cl)c(C(F)(F)F)c4)sc3c2)ccn1`, the GI50 was 2.48 µM, the LC50 was > 100 µM and the TGI was 8.17 µM.

Tested on: not listed separately
Test: Antiproliferative activity against human Caki1 cells assessed as growth inhibition after 48 hrs by sulforhodamine B assay
Type: functional
Conditions: CAKI-1, 48 h
Molecule `CNC(=O)c1cc(Oc2ccc3nc(NC(=O)Nc4ccc(Cl)c(C(F)(F)F)c4)sc3c2)ccn1` has a GI50 of 2.54 µM.

Same assay, conditions: CAKI-1, 48 h, read-out: LC50 (the source's name)
In the case of `CNC(=O)c1cc(Oc2ccc3nc(NC(=O)Nc4ccc(Cl)c(C(F)(F)F)c4)sc3c2)ccn1`, the CC50 was > 100 µM.

Tested on: not listed separately
Test: Antiproliferative activity against human SNB75 cells assessed as growth inhibition after 48 hrs by sulforhodamine B assay
Type: functional
Conditions: SNB-75, 48 h
For `CNC(=O)c1cc(Oc2ccc3nc(NC(=O)Nc4ccc(Cl)c(C(F)(F)F)c4)sc3c2)ccn1`, the GI50 was 1.52 µM and the TGI was 3.24 µM.

Same assay, conditions: SNB-75, 48 h, read-out: LC50 (the source's name)
`CNC(=O)c1cc(Oc2ccc3nc(NC(=O)Nc4ccc(Cl)c(C(F)(F)F)c4)sc3c2)ccn1` showed a CC50 of 6.88 µM.

Tested on: SK-MEL-2
Test: Antiproliferative activity against human SK-MEL-2 cells assessed as cell growth at 10^-7 M after 48 hrs by sulforhodamine B assay
Type: functional
Conditions: SK-MEL-2, 48 h, read-out: Activity
For `CNC(=O)c1cc(Oc2ccc3nc(NC(=O)Nc4ccc(Cl)c(C(F)(F)F)c4)sc3c2)ccn1`, the growth at 0.1 µM was 99%.

Tested on: not listed separately
Test: Antiproliferative activity against human SNB75 cells assessed as cell growth at 10^-7 M after 48 hrs by sulforhodamine B assay
Type: functional
Conditions: SNB-75, 48 h, read-out: Activity
Molecule `CNC(=O)c1cc(Oc2ccc3nc(NC(=O)Nc4ccc(Cl)c(C(F)(F)F)c4)sc3c2)ccn1` has a growth at 0.1 µM of 81%.

Tested on: 786-0
Test: Antiproliferative activity against human 786-0 cells assessed as cell growth at 10^-6 M after 48 hrs by sulforhodamine B assay
Type: functional
Conditions: 786-0, 48 h, read-out: Activity
For `CNC(=O)c1cc(Oc2ccc3nc(NC(=O)Nc4ccc(Cl)c(C(F)(F)F)c4)sc3c2)ccn1`, the growth at 1 µM was 95%.
